These results are taken from PubChem BioAssay AID540271 (Broad Institute, 2011).

Calls of active or inactive are those of the source. How the calls were made is not given here.

The assay has as its system S. cerevisiae expressing PfHSP40, growth rescue, plate reader. Nature of the assay: S cerevisiae expressing PfHSP40, growth rescue, cherry pick dose confirmatory, plate reader (AID 540271).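 Further: yeast growth read after three days of incubation at 30 °C.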
Turning to `CCCCNc1c(-c2ccc(-c3ccc(OC)cc3)c(OC)c2)nc2ccccn12`, the AC50 was 5.48 µM.

For the molecule `N#C/C(=C\c1cccc(Oc2ccccc2)c1)C(=O)N1CCOCC1`, the AC50 was 5.91 µM.

Turning to `CNC1=C(N(C(C)=O)c2ccc(Br)cc2)C(=O)c2ccccc2C1=O`, the AC50 was 6.77 µM.

`CCCCCCSc1ccc(-c2nc3ccccn3c2NCCCC)cc1`: the AC50 is 6.05 µM.

Turning to `Nc1nc(-c2ccccc2)c(-c2ccc([N+](=O)[O-])cc2)s1`, the concentration at half-maximal activity (AC50) is 3.99 µM.

`Clc1cccc(N/N=C(\Cc2nc3ccccc3[nH]2)c2ccccc2)c1`: the AC50 was 9.04 µM.

Take `Cc1cc(C)c2sc(NNC(=O)c3ccc(S(=O)(=O)N4CCc5ccccc5C4)cc3)nc2c1`: the AC50 was 1.48 µM.

`Cc1cccc(NS(=O)(=O)c2ccc(-c3cnc(C4CC4)o3)cc2)c1C`: the AC50 is 5.32 µM.

For the molecule `Cc1onc(-c2c(Cl)cccc2Cl)c1C(=O)N/N=C(\N)COc1ccc(Cl)cc1`, the AC50 is 3.02 µM.

`COc1ccc2c(c1)[C@H]1[C@H](CO2)[C@H](c2ccccc2)[C@]2(C)C(=O)Nc3ccc(Cl)cc3C(=O)N12`: the AC50 is > 12 µM (inactive).

As to `CC(C)(CN1CCc2ccccc2C1)NS(=O)(=O)c1ccc(Cl)cc1`, the AC50 is 11 µM.

Turning to `Cc1ccc(-n2nnnc2C(Cl)c2nnnn2-c2ccc(C)cc2)cc1`, the AC50 is 3.4 µM.

For the molecule `Cc1cc(C(=O)COC(=O)Cc2n[nH]c(=O)c3ccccc23)c(C)n1-c1cccc(C(F)(F)F)c1`, the AC50 was 6.72 µM.

Regarding `Cn1cnc([N+](=O)[O-])c1S(=O)(=O)Oc1ccc(Cl)cc1`, the AC50 is 6.4 µM.

For the molecule `C=C1C(=O)C23CCC4C(C)(C(=O)OC)CCCC4(C)C2CCC1(O)C3` (centres undefined), the AC50 was 11.6 µM.

As for `CCc1cc(C(N)=O)c(NC(=O)c2ccc(OC)cc2)s1`, the AC50 was 1.77 µM.

Regarding `CCCCOC(=O)/C=C/c1ccc(OC(=O)OC)c(OC(=O)OC)c1`, the AC50 is 5.54 µM.

`O=C(CC1CC2CCC1C2)Nc1nc(-c2ccccn2)cs1` (centres undefined): the AC50 was 5.1 µM.

On to `O=P(Nc1cccnc1)(Oc1ccccc1Cl)Oc1ccccc1Cl`, for which the AC50 is 6.5 µM.

Turning to `O=C1c2ccccc2NC(c2ccc(-c3ccc(F)cc3)o2)N1O` (centres undefined), the half-maximal activity concentration (AC50) is 8.42 µM.

`COC(=O)c1cccc2c1-c1ccccc1/C2=N/O`: the half-maximal activity concentration (AC50) is 4.95 µM.

For `O=C(N/N=C/c1cc(Cl)cc([N+](=O)[O-])c1O)c1ccccc1NS(=O)(=O)c1cccs1`, the AC50 was 1.04 µM.

Take `O=C1N(c2ccc(Cl)cc2)C(c2cccnc2)N2CCCN12` (centres undefined): the AC50 was 6.03 µM.

For `COc1cccc(C(C)=C2SC(=S)NC2=O)c1`, the AC50 was 9.37 µM.

As to `Cc1cc(/C=C2\SC(=S)N(C)C2=O)c(C)n1-c1ccc(O)cc1`, the AC50 was 3.33 µM.

For the molecule `O=C(COc1ccc([N+](=O)[O-])cc1)Nc1nc(-c2ccccn2)cs1`, the AC50 is 5.37 µM.

With `O=C1C(=C(I)I)c2ccccc2-c2ccccc21`, the AC50 is 5.61 µM.

For the molecule `Cc1ccc(-c2nc3ccc(Cl)cc3c(=O)n2O)cc1`, the AC50 was 2.08 µM.

Consider `c1ccc(-c2ccc(SCc3cccnc3)nn2)nc1`, for which the AC50 is > 12 µM (inactive).

Consider `CC(C)N1CCN(c2ccc(OCC3COC(Cn4cncn4)(c4ccc(Cl)cc4Cl)O3)cc2)CC1` (centres undefined), for which the AC50 was 2.01 µM.

As for `CCOc1ccc(N/N=C(/C#N)C(N)=O)cc1`, the AC50 is 4.1 µM.

Consider `COc1cc2c(c(OC)c1OC)-c1ccc(O)c(=O)cc1[C@@H](N)CC2`, for which the AC50 was 2.52 µM.

For `Cc1nc2ccc(NC(=O)Cc3ccc4c(c3)OCCO4)cc2s1`, the AC50 is 4.83 µM.

`COc1cccc(C(=O)Nc2sc(C(C)C)cc2C(N)=O)c1OC`: the AC50 is 5.46 µM.

For the molecule `CC(=O)NC(c1cccc([N+](=O)[O-])c1)c1ccc2cccnc2c1O` (centres undefined), the AC50 is 3.95 µM.

For `O=C(O)c1ccccc1NC(c1ccccc1)c1ccc2cccnc2c1O` (centres undefined), the AC50 was 2.19 µM.

Take `O=C(CN1CC[n+]2c(-c3cccs3)csc21)c1ccc(-c2ccccc2)cc1`: the AC50 is 7.25 µM.

Consider `c1ccc(Nc2cccc(Nc3ccccc3)c2)cc1`, for which the AC50 is 5.81 µM.

On to `COC(=O)COC(=O)c1ccccc1NC(=O)c1ccccc1`, for which the AC50 was 3.13 µM.

In general, AC50 refers to the midpoint of the concentration-response curve, whichever way the signal moves.
